Patent US9937115B2, “Oral care compositions with improved flavor” (priority 2010, dated 2018)
Counter-ions that a name gives are not always drawn. Like-named read-outs stand apart in the source and are kept apart here.

Biological target: T1, TRPA1 receptor (Homo sapiens, UniProt O75762)
T1 construct: expressed in transfected cells; host or cells: HEK cell line
Assay: cell-based
Parameters: activation: dose or concentration left out as unconfirmed
Experimental: The term “TRPA1 activator” as used herein refers to any component which at a concentration of 1 mM gives a calcium flux count of at least 1000 counts above the background level of calcium present in the cell according to the FLIPR method as discussed herein. The term “count” is defined as the change in fluorescence of the transfected cell lines due to the influx of calcium across the cell membrane, which reacts with the calcium sensitive dye present within the cells.
In order to select TRPA1 agonists that would be preferred for reducing off-tasting chemical components found in oral care compositions, calcium flux receptor activity on the TRPA1 was utilized as the criteria for selection of actives. With allyl isothiocyanate as the TRPA1 positive control, molecules that directly activated the TRPA1 receptor were screened in dimethylsulfoxide (DMSO). Pure molecules of each material were dissolved in DMSO at a concentration of 100 micormolar and then added to an HEK cell line containing the TRPA1 receptor. If they are TRPA1 agonists, they will cause a calcium flux in the cell which fluoresces and may then be measured using a FLIPR machine.

[1] = HEK293, percentage of the control (allyl isothiocyanate) calcium count, material dissolved in DMSO at 100 micromolar, HEK cells with TRPA1, direct addition, read-out: TRPA1 Direct addition
[2] = HEK293, percentage of the control (allyl isothiocyanate) calcium count, material dissolved in DMSO at 100 micromolar, HEK cells with TRPA1, pre-incubation, read-out: TRPA1 Pre-incubation
[3] = HEK293, read-out: TRPA1 Direct addition
[4] = HEK293, read-out: TRPA1 Pre-incubation
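Throughout, for TRPA1 Pre-incubation: values above 100 mean more active than the control.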

T1 sequence (O75762 whole entry): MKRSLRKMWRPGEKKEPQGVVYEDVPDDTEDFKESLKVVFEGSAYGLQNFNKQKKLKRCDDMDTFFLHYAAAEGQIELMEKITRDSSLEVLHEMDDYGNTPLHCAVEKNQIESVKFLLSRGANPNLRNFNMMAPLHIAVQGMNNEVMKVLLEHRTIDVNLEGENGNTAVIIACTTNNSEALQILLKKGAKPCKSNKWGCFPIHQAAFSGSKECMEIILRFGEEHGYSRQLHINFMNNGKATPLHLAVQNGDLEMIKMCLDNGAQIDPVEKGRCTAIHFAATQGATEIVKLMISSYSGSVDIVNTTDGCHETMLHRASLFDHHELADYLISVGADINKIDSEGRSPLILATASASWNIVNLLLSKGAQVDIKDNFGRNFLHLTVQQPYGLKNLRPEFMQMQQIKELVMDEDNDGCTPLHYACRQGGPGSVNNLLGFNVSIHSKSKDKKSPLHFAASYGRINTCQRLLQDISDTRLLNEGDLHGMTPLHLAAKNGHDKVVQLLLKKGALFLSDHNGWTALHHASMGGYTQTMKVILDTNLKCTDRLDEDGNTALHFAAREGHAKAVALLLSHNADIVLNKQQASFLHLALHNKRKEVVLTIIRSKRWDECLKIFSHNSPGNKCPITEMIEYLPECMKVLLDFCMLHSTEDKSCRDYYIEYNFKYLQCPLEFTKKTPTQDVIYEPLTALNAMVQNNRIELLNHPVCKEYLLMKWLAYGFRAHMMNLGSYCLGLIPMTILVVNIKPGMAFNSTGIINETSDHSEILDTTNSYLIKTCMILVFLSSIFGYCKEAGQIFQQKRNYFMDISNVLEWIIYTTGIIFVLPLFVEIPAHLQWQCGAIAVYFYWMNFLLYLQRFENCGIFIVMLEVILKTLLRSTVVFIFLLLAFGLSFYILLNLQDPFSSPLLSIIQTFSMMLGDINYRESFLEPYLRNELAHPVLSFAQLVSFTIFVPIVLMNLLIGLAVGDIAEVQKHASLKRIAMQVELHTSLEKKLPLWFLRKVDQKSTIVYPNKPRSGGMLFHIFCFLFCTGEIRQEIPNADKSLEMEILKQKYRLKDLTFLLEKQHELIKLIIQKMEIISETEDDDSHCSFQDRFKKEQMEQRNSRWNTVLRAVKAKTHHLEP

Molecule	activation at 100 µM [1] [%]	activation [2] [%]	other results
CCC(C)CO (stereo not drawn) [2-Methyl-1-Butanol]	-1.19	71.6	–
CCCCCCOC(=O)CCCCC [Hexyl Hexanoate]	0.07	67.4	–
CC1=CC(=O)[N-]S(=O)(=O)O1.[K+] [Acesulfame K]	–	–	TRPA1 Direct addition: −0.12%; TRPA1 Pre-incubation: 95.57%
CCCCOC(=O)[C@H](C)O [Butyl L-Lactate]	-0.66	–	activation at 100 µM [2]: 67.3%
CC1=CCC2CC1C2(C)C (stereo not drawn) [Alpha-Pinene]	-3.07	86.6	–
O=COCc1ccccc1 [Benzyl Formate]	–	75.3	activation [1]: -3.01%
CC(=O)OCC(COC(C)=O)OC(C)=O [Triacetin]	-17.1	79.3	–
CC(=O)OC1CC(C)CCC1C(C)C (stereo not drawn) [Menthyl Acetate]	-7.24	75.8	–
O=C1CCCCCCCCCCCC(=O)OCCO1 [Ethylene Brassylate]	-0.58	37.2	–
CC(C)C(=O)OCCOc1ccccc1 [Phenoxyethyl Isobutyrate]	-7.84	36.8	–
CC1=CCC(C(C)C)=CC1 [Gamma-Terpinene]	0.21	61.5	–
CCCOC(=O)c1ccc(O)cc1 [n-Propyl-4-hydroxybenzoate]	173	8.13	–
CC(=O)OCc1ccc2c(c1)OCO2 [Piperonyl Acetate]	–	–	activation at 100 µM [3]: -0.28%; activation at 100 µM [4]: 102%
CC(CC=O)CC(C)(C)C (stereo not drawn) [3,5,5-Trimethyl Hexanal]	75.7	92.2	–
O=Cc1ccco1 [Furfural]	-0.15	69	–
O=Cc1ccccc1O [Salicylaldehyde]	0.01	62.5	–
C=CCc1cc(OC)c(O)c(OC)c1 [4-Allyl-2,6-Dimethoxyphenol]	39.2	15.5	–
CCOC(=O)c1ccccc1 [Ethyl Benzoate]	-0.07	60.3	–
CCCCOC(=O)CCC [Butyl Butyrate]	-0.66	62.3	–
CCOC(=O)C(C)CC (stereo not drawn) [Ethyl 2-Methylbutyrate]	0.26	82	–
CC(=O)OC(C)(C)Cc1ccccc1 [Alpha, Alpha Dimethylphenethyl Acetate]	-3.2	72	–
CCCCCCC(=O)OCC [Ethyl Heptanoate]	0.23	79	–
OCCc1ccccc1 [Phenyl Ethyl Alcohol]	-4.77	55	–
CCCCCCCCCCO [Material 1-Decanol, 1-Decanol]	-1.41	59.8	–
COC(C=C(C)CCC=C(C)C)OC [Citral Dimethyl Acetal]	0.16	78	–
CCCCCCCC(=O)OCC [Ethyl Octanoate]	-0.14	87.3	–

Molecule	activation at 100 µM [1] [%]	activation [2] [%]	other results
CCCCCC(=O)O [Hexanoic Acid]	-0.4	67.2	–
CC/C=C\CCCCC=O [cis-6-Nonenal]	2.76	74.7	–
CCCCCCO [Hexyl Alcohol]	-0.22	66.2	–
CCCCCCCCC=O [Nonanal]	-14	51.4	–
CCCCCCCO [Heptyl Alcohol]	0.59	70.7	–
O=C(OCCc1ccccc1)c1ccccc1O [Phenethyl salicylate]	7.36	110	–
CCCCCCCCCC(C)=O [Material 2-Undecanone, 2-Undecanone]	10.7	65.9	–
CCOC(=O)C(C)O (stereo not drawn) [Ethyl Lactate]	-0.14	67.4	–
CC(=O)OCc1ccccc1 [Benzyl Acetate]	-0.31	74.5	–
CCCCCOC(=O)c1ccco1 [Amyl 2-Furoate]	-2.39	74.1	–
CC(C)CC=C(C=O)c1ccccc1 [5-Methyl-2-Phenyl-2-Hexenal]	–	–	activation [3]: 132%; activation [4]: -11.7%
O=S(=O)([O-])NC1CCCCC1.[Na+] [Sodium Cyclamate]	–	–	TRPA1 Direct addition: −4.07%; TRPA1 Pre-incubation: 48.66%
Cc1nccnc1C [2,3-Dimethylpyrazine]	-1.77	62.6	–
O=S(=O)([O-])[O-].[Zn+2] [Zinc Sulfate]	–	–	TRPA1 Direct addition: 29.79%; TRPA1 Pre-incubation: 21.7%
O=C(C=Cc1ccccc1)OCc1ccccc1 [Benzyl Cinnamate]	–	81.1	activation [1]: -2.39%
CCCCCC/C=C/C=O [Trans-2-Nonenal]	123	23.3	–
CCc1ncc(C)nc1CC [2,3-Diethyl-5-Methylpyrazine]	0.99	76.9	–
CCC(C)C1CCCCC1=O (stereo not drawn) [2-sec-Butylcyclohexanon]	-1.47	63.7	–
CCOC(=O)c1ccccc1O [Ethyl Salicylate]	-0.53	106	–
Cc1cnc(C)c(C)n1 [2,3,5-Trimethyl-pyrazine]	-1.13	48.8	–
CCC=C1OC(=O)c2ccccc21 [3-Propylidenephthalide]	116	6.21	–
CCCCCCCCCCCC(C)=O [2-Tridecanone]	7.21	60.8	–
CCC(C)C(=O)OCCC(C)C (stereo not drawn) [3-Methylbutyl-2-Methylbutanoate]	-1.18	71.4	–
CC(=O)C(C)O (stereo not drawn) [Acetoin]	0.29	82.6	–
CCCC(=O)OC/C=C(\C)CCC=C(C)C [Geranyl Butyrate]	0.12	61.5	–
C=CCOC(=O)CCC1CCCCC1 [Allyl Cyclohexanepropionate]	0.45	81.7	–

Molecule	activation at 100 µM [1] [%]	activation [2] [%]	other results
CC(C)CC(=O)OC1CC2CCC1(C)C2(C)C (stereo not drawn) [Bornyl Isovalerate]	-1.36	72.5	–
CC(C)=CCCC(C)C=O (stereo not drawn) [2,6-Dimethyl-5-Heptenal]	-0.15	–	activation at 100 µM [2]: 97.6%
CCCCCC=CC=CC(=O)OCCC [Propyl 2,4-Decadienoate]	-15.7	105	–
CC(=O)[O-].CC(=O)[O-].[Zn+2] [Zinc Acetate]	–	–	TRPA1 Direct addition: −0.66%; TRPA1 Pre-incubation: 21.67%
C=CCOC(=O)CCCCCCCC [Allyl Nonanoate]	-1.87	69.6	–
CC1(C)C2CCC1(C)C(O)C2 (stereo not drawn) [Borneol]	-1.6	51	–
[O]=[Zn] [Zinc Oxide]	–	–	TRPA1 Direct addition: −3.73%; TRPA1 Pre-incubation: 71.09%
CCCCCC/C=C/CO [Trans-2-Nonen-1-ol]	-0.49	115	–
CCOC(=O)CC(C)C [Ethyl Isovalerate]	-0.05	62.8	–
COC(=O)/C=C/c1ccccc1 [Methyl trans-Cinnamate]	-16.8	69.4	–
CC(C)CCO [Isoamyl Alcohol]	–	–	activation [3]: -0.15%; activation [4]: 70.9%
CC(=O)O [Acetic Acid]	–	–	activation [3]: 0.27%; activation [4]: 68.5%
CCCCCCCC=O [Octanal]	-11	87.9	–
CCCCCCCCCCCCO [Lauryl Alcohol]	-0.86	50.5	–
CC1=CCC(C(C)(C)O)CC1 (stereo not drawn) [Alpha-Terpineol]	15.8	60.5	–
COC(Cc1ccccc1)OC [Phenylacetaldehyde Dimethyl Acetal]	-14.8	81.4	–
Methyl Ionone	–	–	TRPA1 Direct addition: 38.43%; TRPA1 Pre-incubation: −1.32%
CCCCCC(=Cc1ccccc1)C(OC)OC [Alpha-Amylcinnamaldehyde Dimethyl acetal]	-2.4	-0.12	–
CCCC(=O)C(C)=O [2,3-Hexanedione]	-0.19	101	–
2-Methybutyl Isovalerate	–	–	TRPA1 Direct addition: −1.49%; TRPA1 Pre-incubation: 69.9%
Cc1coc2c1CCC(C)C2 (stereo not drawn) [4,5,6,7-Tetrahydro-3,6-Dimethylbenzofuran]	0.57	84.8	–
O=C([O-])C(=O)[O-].[Zn+2] [Zinc Oxalate]	–	–	TRPA1 Direct addition: 40.18%; TRPA1 Pre-incubation: 18.11%
CC(O)C(=O)[O-].CC(O)C(=O)[O-].[Mg+2] (stereo not drawn) [Magnesium Lactate]	–	–	TRPA1 Direct addition: −4.49%; TRPA1 Pre-incubation: 58.12%
CC/C=C\CCCCCO [cis-6-Nonen-1-ol]	2.38	98	–
O=C(c1ccccc1)C(O)c1ccccc1 (stereo not drawn) [Benzoin]	-0.5	56.2	–
CCC/C=C/C=O [trans-2-Hexenal]	1.62	103	–
